Our source for the IC50 values is patent publication US10570149B2, “Tricyclic heterocylic derivatives” (MERCK PATENT GMBH, priority 2016, dated 2020).

For experiment [1], the target named is T1, ATR/ATRIP (Homo sapiens, UniProt Q13535).
T1 construct: human ATR, full length, GenBank ID: NM_001184.3; p53: Sf21 insect cells
Nature of the experiment: ATR/ATRIP kinase assay (TR-FRET, p53 phosphorylation). It is filed as biochemical. The method, then:
ATR/ATRIP Kinase Assay—Measurement of ATR/ATRIP Inhibition
The IC50 value was determined by an ATR/ATRIP enzymatic assay. The assay comprises two steps: the enzymatic reaction and the detection step. First, a mixture of ATR/ATRIP protein (Ataxia Telangiectasia and Rad3-related protein/ATR interacting protein), the compound in question at different concentrations, p53 as substrate protein and adenosine triphosphate (ATP) are incubated in assay buffer. ATR phosphorylates p53 at Ser15 and other residues. The amount of phosphorylated p53 is then detected using specific antibodies and the TR-FRET assay technology.
In detail: The ATR/ATRIP enzymatic assay is performed as a TR-FRET-(HTRF™, Cisbio Bioassays) based 384-well assay. In a first step, purified human recombinant ATR/ATRIP (human ATR, full length, GenBank ID: NM_001184.3, and human ATRIP, full length, GenBank ID AF451323.1, co-expressed in a mammalian cell line) is incubated in assay buffer for 15 minutes at 22° C. with test compound at different concentrations or without test compound (as a negative control). The assay buffer contains 25 mM HEPES pH 8.0, 10 mM Mg(CH3COO)2, 1 mM MnCl2, 0.1% BSA, 0.01% Brij® 35, and 5 mM dithiothreitol (DTT). […] Then, in a second step, purified human recombinant cmyc-tagged p53 (human p53, full length, GenBank ID: BC003596, expressed in Sf21 insect cells) and ATP are added and the reaction mixture is incubated for 25-35 minutes, typically 25 minutes, at 22° C. The pharmacologically relevant assay volume is 5 μl. The final concentrations in the assay during incubation of the reaction mixture are 0.3-0.5 nM, typically 0.3 nM, ATR/ATRIP, 50 nM p53, and 0.5 μM ATP. The enzymatic reaction is stopped by the addition of EDTA. […] Following signal development for 2 h the plates are analyzed in an EnVision (PerkinElmer) microplate reader using the TRF mode with laser excitation. […] Data are processed employing the Genedata Screener software. In particular, IC50 values are determined in the usual manner by fitting a dose-response curve to the data points using nonlinear regression analysis.

For experiment [2], the system named is phosphorylation of Chk1 (Ser 345) in HT29 colon adenocarcinoma cells. Nature of the experiment: pCHK1 cellular assay. To be noted: Homo sapiens, HT-29, Table 1, class symbols, hydroxyurea. It counts as cell-based. The text has this:
Chk1 kinase acts downstream of ATR and has a key role in DNA damage checkpoint control. Activation of Chk1 involves phosphorylation of Ser317 and Ser345 (regarded as the preferential target for phosphorylation/activation by ATR) and occurs in response to blocked DNA replication and certain forms of genotoxic stress. Phosphorylation at Ser 345 serves to localize Chk1 to the nucleus following checkpoint activation.
This assay measures a decrease in phosphorylation of Chk1 (Ser 345) in HT29 colon adenocarcinoma cells following treatment with compound and hydroxyurea (which promotes fork stalling because of dNTP depletion) and using an immunocytochemical procedure and high content imaging.
For the assay HT29 cells are plated in culture medium (DMEM high Glucose (no phenol red), 2 mM Glutamax, 1 mM Pyruvate, 10% FCS into Greiner 384 well plates, black, μclear #781090 (2500 cells/well/30 μl) and incubated for at least 20 hours at 37° C., 10% CO2 and 90% rH. Diluted test compounds (1 nM-30 μM final) and hydroxyurea (3 mM final) are added simultaneously and cells are incubated for 4 h at 37° C. After fixation/prmeabilisation with 100% MeOH (−20° C. cold) and permeabilisation with 0.2% Triton X-100 a complete immunocytochemical procedure is performed using a specific anti-pChk1 antibody (Cell Signaling, #2348BF) and fluorescently labelled secondary antibody (Alexa Fluor® 488 goat anti-rabbit F(ab′)2 fragment, Invitrogen A11070) and parallel nuclear staining for cell counting.
The nuclear localised pChk1 signal is detected on an ImageXpress Ultra confocal high content reader and reported as % positive cells (nuclei).

Where [3] appears, read: Table 1, class symbols, read-out: ATR-ATRIP IC50.

Like-named read-outs stand apart in the source and are kept apart here.

T1 sequence (Q13535 whole entry): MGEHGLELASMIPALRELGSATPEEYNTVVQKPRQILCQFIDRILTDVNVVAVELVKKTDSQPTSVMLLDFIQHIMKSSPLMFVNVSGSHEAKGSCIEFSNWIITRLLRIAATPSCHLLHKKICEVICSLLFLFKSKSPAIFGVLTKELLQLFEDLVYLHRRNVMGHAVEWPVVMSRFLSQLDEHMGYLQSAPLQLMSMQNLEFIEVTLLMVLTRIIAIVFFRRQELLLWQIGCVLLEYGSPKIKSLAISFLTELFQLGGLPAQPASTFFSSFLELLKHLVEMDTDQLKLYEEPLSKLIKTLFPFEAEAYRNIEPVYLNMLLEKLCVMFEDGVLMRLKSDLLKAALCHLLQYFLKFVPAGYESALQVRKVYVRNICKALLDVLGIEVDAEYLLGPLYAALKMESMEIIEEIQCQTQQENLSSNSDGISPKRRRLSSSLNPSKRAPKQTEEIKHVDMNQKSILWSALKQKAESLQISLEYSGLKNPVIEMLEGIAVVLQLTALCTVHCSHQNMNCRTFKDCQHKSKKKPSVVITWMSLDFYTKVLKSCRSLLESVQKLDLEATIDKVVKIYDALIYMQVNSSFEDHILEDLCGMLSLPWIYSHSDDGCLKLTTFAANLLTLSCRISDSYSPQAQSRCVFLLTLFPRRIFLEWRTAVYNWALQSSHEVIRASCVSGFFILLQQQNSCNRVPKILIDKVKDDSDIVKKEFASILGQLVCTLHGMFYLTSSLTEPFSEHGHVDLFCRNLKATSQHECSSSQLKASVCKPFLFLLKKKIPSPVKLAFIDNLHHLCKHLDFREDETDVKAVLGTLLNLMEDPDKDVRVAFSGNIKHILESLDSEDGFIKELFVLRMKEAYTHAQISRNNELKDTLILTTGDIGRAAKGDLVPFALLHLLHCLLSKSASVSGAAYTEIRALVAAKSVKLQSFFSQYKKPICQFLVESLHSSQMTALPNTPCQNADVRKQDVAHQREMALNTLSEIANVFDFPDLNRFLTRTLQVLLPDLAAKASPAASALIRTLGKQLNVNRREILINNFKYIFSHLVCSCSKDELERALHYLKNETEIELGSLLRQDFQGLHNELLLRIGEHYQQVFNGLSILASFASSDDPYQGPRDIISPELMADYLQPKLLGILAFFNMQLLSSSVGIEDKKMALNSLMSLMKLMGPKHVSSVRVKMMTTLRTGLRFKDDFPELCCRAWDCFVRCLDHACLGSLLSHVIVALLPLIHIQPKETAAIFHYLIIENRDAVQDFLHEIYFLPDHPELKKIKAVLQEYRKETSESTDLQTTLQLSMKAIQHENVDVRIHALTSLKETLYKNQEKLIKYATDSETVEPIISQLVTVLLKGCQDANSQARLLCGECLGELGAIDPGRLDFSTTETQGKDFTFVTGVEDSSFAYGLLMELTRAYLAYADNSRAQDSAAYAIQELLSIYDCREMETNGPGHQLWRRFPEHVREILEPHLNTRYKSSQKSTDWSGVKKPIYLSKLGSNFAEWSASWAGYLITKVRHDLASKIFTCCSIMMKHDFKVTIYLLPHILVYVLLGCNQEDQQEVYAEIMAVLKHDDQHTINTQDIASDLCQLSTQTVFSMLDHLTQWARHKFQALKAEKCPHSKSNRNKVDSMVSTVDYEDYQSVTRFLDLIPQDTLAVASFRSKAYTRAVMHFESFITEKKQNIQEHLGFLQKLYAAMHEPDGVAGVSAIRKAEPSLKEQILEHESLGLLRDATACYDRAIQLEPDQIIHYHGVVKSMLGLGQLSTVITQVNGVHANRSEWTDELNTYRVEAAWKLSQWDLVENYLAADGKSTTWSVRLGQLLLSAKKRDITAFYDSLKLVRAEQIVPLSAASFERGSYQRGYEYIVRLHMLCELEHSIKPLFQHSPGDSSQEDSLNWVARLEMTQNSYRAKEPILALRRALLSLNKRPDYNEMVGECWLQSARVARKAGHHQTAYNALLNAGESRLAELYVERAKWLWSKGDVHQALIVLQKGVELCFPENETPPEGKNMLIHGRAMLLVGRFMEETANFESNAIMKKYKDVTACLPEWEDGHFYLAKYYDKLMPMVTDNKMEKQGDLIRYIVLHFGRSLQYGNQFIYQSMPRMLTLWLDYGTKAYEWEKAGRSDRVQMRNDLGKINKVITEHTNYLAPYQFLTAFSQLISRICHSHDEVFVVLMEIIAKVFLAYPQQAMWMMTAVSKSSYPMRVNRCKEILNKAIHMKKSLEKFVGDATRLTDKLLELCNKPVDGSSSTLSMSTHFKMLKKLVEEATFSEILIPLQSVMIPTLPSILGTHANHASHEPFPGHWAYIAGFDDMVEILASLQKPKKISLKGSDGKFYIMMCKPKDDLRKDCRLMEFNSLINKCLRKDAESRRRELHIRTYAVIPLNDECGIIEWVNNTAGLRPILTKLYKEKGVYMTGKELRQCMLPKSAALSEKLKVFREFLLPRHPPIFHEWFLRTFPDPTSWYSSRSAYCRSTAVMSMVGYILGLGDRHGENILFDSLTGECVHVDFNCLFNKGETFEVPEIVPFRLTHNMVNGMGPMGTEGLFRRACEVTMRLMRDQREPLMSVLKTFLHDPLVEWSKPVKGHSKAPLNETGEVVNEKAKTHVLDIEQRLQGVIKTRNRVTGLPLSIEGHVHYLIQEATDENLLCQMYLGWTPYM
T1 sequence (Q8WXE1 whole entry partner): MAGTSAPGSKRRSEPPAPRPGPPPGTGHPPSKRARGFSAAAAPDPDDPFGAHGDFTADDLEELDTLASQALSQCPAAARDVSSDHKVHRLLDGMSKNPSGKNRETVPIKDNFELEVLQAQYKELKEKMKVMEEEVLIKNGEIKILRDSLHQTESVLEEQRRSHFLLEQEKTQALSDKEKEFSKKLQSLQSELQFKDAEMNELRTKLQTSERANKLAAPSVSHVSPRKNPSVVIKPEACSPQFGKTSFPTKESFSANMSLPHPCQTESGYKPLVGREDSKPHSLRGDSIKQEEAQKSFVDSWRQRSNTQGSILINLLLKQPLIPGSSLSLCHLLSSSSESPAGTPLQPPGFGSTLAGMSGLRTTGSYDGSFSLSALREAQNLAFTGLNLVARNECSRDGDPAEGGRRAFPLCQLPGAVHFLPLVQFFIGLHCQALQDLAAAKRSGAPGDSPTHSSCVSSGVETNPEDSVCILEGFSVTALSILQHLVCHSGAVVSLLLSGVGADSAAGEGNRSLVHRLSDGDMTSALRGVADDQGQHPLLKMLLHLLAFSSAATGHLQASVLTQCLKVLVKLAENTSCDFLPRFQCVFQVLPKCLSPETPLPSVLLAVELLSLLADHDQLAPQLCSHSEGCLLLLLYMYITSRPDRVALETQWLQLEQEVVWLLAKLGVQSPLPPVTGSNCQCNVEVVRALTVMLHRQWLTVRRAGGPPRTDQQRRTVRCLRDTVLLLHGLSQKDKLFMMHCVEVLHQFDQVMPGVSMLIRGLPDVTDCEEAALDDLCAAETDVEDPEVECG

`CNc1nc2ccccc2n1-c1nc2c(c(C(C)(C)S(C)(=O)=O)n1)OC[C@H]1COC[C@@H](C)N21` [A8, {1-[(5R,8aR)-1-(1-Methanesulfonyl-1-methyl-ethyl)-5-methyl-5,6,8a,9-tetrahydro-8H-7,10-dioxa-2,4,4b-triaza-phenanthren-3-yl]-1H-benzimidazol-2-yl}-methyl-amine]: the figures for the IC50 in experiment [1] (setting [3]) and in experiment [2] were 1 to 10 nM and 100 to 1000 nM, respectively.
In the same order, the values of `CNc1ncc2[nH]ccc2c1-c1nc2c(c(C(C)(C)S(C)(=O)=O)n1)OC[C@@H]1COC[C@@H](C)N21` [A27, {4-[(5R,8aS)-1-(1-Methanesulfonyl-1-methyl-ethyl)-5-methyl-5,6,8a,9-tetrahydro-8H-7,10-dioxa-2,4,4b-triaza-phenanthren-3-yl]-1H-pyrrolo[2,3-c]pyridin-5-yl}-methyl-amine] are less than 1 nM and less than 10 nM.
Consider `C[C@@H]1COC[C@H]2COc3c(nc(-c4c(F)ncc5[nH]ccc45)nc3C(C)(C)S(C)(=O)=O)N21` [A29, (5R,8aS)-3-(5-Fluoro-1H-pyrrolo[2,3-c]pyridin-4-yl)-1-(1-methanesulfonyl-1-methyl-ethyl)-5-methyl-5,6,8a,9-tetrahydro-8H-7,10-dioxa-2,4,4b-triaza-phenanthrene], for which the half-inhibitory concentration (IC50) in experiment [1] (setting [3]) is less than 1 nM; in experiment [2], 10 to 100 nM.
`CC(=O)Nc1nc2ccccc2n1-c1nc2c(c(C(C)(C)S(C)(=O)=O)n1)OC[C@@H]1COC[C@@H](C)N21` [A34, N-{1-[(10S,14R)-6-(2-Methanesulfonylpropan-2-yl)-14-methyl-8,12-dioxa-1,3,5-triazatricyclo[8.4.0.0^2,7]tetradeca-2,4,6-trien-4-yl]-1H-1,3-benzodiazol-2-yl}acetamide]: the IC50 in experiment [1] (setting [3]) was less than 1 nM; in experiment [2], 10 to 100 nM.
The corresponding values for `C[C@@H]1COC[C@H]2COc3c(nc(-c4c(N)cnc5[nH]ccc45)nc3C3(S(C)(=O)=O)CC3)N21` [A37, 4-[(10S,14R)-6-(1-methanesulfonylcyclopropyl)-14-methyl-8,12-dioxa-1,3,5-triazatricyclo[8.4.0.0^2,7]tetradeca-2,4,6-trien-4-yl]-1H-pyrrolo[2,3-b]pyridin-5-amine] are less than 1 nM and 100 to 1000 nM.
In the same order, the values of `C[C@@H]1COC[C@H]2COc3c(nc(-c4cncc5[nH]ccc45)nc3C(C)(C)S(C)(=O)=O)N21` [A39, (5R,8aS)-1-(1-methanesulfonyl-1-methyl-ethyl)-5-methyl-3-(1H-pyrrolo[2,3-c]pyridin-4-yl)-5,6,8a,9-tetrahydro-8H-7,10-dioxa-2,4,4b-triaza-phenanthrene] are less than 1 nM and 10 to 100 nM.
The corresponding values for `[2H]C([2H])([2H])Nc1cnc2[nH]ccc2c1-c1nc2c(c(C(C)(C)S(C)(=O)=O)n1)OC[C@@H]1COC[C@@H](C)N21` [A42, 4-[(10S,14R)-6-(2-methanesulfonylpropan-2-yl)-14-methyl-8,12-dioxa-1,3,5-triazatricyclo[8.4.0.0^2,7]tetradeca-2,4,6-trien-4-yl]-N-(^2H3)methyl-1H-pyrrolo[2,3-b]pyridin-5-amine] are 1 to 10 nM and 10 to 100 nM.
As to `C[C@@H]1COC[C@H]2COc3c(nc(-c4ccc(-c5ncc[nH]5)cc4)nc3C(C)(C)S(C)(=O)=O)N21` [A44, (10S,14R)-4-[4-(1H-imidazol-2-yl)phenyl]-6-(2-methanesulfonylpropan-2-yl)-14-methyl-8,12-dioxa-1,3,5-triazatricyclo[8.4.0.0^2,7]tetradeca-2,4,6-triene], the IC50 is less than 1 nM in experiment [1] (setting [3]) and 100 to 1000 nM in experiment [2].
In the same order, the values of `C[C@@H]1COC[C@H]2COc3c(nc(-c4ccc(CN)cc4)nc3C(C)(C)S(C)(=O)=O)N21` [A46, 4-[(5R,8aS)-1-(1-methanesulfonyl-1-methyl-ethyl)-5-methyl-5,6,8a,9-tetrahydro-8H-7,10-dioxa-2,4,4b-triaza-phenanthren-3-yl]-benzylamine] are less than 1 nM and 10 to 100 nM.
As for `C[C@@H]1COC[C@H]2COc3c(nc(-c4ccc(C5(CO)CN5)cc4)nc3C(C)(C)S(C)(=O)=O)N21` (stereo partly drawn) [A61, (2-{4-[(5R,8aS)-1-(1-methanesulfonyl-1-methyl-ethyl)-5-methyl-5,6,8a,9-tetrahydro-8H-7,10-dioxa-2,4,4b-triaza-phenanthren-3-yl]-phenyl}-aziridin-2-yl)-methanol], the figures for the IC50 in experiment [1] and in experiment [2] were 500 to 30000 nM and 1000 to 30000 nM, respectively.
The corresponding values for `C[C@@H]1COC[C@H]2COc3c(nc(-c4cccc(C5(CO)CN5)c4)nc3C(C)(C)S(C)(=O)=O)N21` (stereo partly drawn) [A63, (2-{3-[(5R,8aS)-1-(1-methanesulfonyl-1-methyl-ethyl)-5-methyl-5,6,8a,9-tetrahydro-8H-7,10-dioxa-2,4,4b-triaza-phenanthren-3-yl]-phenyl}-aziridin-2-yl)-methanol] are 500 to 30000 nM and 1000 to 30000 nM.
With `C[C@@H]1COC[C@H]2COc3c(nc(-c4cccc(C5(N)COC5)c4)nc3C(C)(C)S(C)(=O)=O)N21` [A64, 3-{3-[(5R,8aS)-1-(1-methanesulfonyl-1-methyl-ethyl)-5-methyl-5,6,8a,9-tetrahydro-8H-7,10-dioxa-2,4,4b-triaza-phenanthren-3-yl]-phenyl}-oxetan-3-ylamine], the IC50 was 500 to 30000 nM in experiment [1] (setting [3]) and 1000 to 30000 nM in experiment [2].
The corresponding values for `C[C@@H]1COC[C@H]2COc3c(nc(-c4cc5cc(F)ncc5[nH]4)nc3C(C)(C)S(C)(=O)=O)N21` [A67, (5R,8aS)-3-(5-fluoro-1H-pyrrolo[2,3-c]pyridin-2-yl)-1-(1-methanesulfonyl-1-methyl-ethyl)-5-methyl-5,6,8a,9-tetrahydro-8H-7,10-dioxa-2,4,4b-triaza-phenanthrene] are 10 to 100 nM and 1000 to 30000 nM.
With `C[C@@H]1COC[C@H]2COc3c(nc(Nc4cn[nH]n4)nc3C(C)(C)S(C)(=O)=O)N21` [A69, [(5R,8aS)-1-(1-methanesulfonyl-1-methyl-ethyl)-5-methyl-5,6,8a,9-tetrahydro-8H-7,10-dioxa-2,4,4b-triaza-phenanthren-3-yl]-(2H[1,2,3]triazol-4-yl)-amine], the IC50 in experiment [1] (setting [3]) lay in the range of 10 to 100 nM; in experiment [2] it was 100 to 1000 nM.
In the same order, the values of `C[C@@H]1COC[C@H]2COc3c(nc(-c4ccc5nc(N)ccc5c4)nc3C(C)(C)S(C)(=O)=O)N21` [A72, 6-[(5R,8aS)-1-(1-methanesulfonyl-1-methyl-ethyl)-5-methyl-5,6,8a,9-tetrahydro-8H-7,10-dioxa-2,4,4b-triaza-phenanthren-3-yl]-quinolin-2-ylamine] are less than 1 nM and 100 to 1000 nM.
As for `C[C@@H]1COC[C@H]2COc3c(nc(Nc4ccn[nH]4)nc3C(C)(C)S(C)(=O)=O)N21` [A73, [(5R,8aS)-1-(1-methanesulfonyl-1-methyl-ethyl)-5-methyl-5,6,8a,9-tetrahydro-8H-7,10-dioxa-2,4,4b-triaza-phenanthren-3-yl]-(2H-pyrazol-3-yl)-amine], the IC50 in experiment [1] (setting [3]) was less than 1 nM; in experiment [2] it was 10 to 100 nM.
Take `C[C@@H]1COC[C@H]2COc3c(nc(N(C)c4ccn[nH]4)nc3C(C)(C)S(C)(=O)=O)N21` [A74, [(5R,8aS)-1-(1-methanesulfonyl-1-methylethyl)-5-methyl-5,6,8a,9-tetrahydro-8H-7,10-dioxa-2,4,4b-triaza-phenanthren-3-yl]-methyl-(2H-pyrazol-3-yl)-amine]: the IC50 in experiment [1] (setting [3]) and in experiment [2] was 10 to 100 nM throughout.
